Measurements reported in paper PMC10254170, “Diastereoselective Synthesis of the Borylated D-Galactose Monosaccharide 3-Boronic-3-Deoxy-D-Galactose and Biological Evaluation in Glycosidase Inhibition and in Cancer for Boron Neutron Capture Therapy (BNCT)” (Molecules, 2023).
Like-named read-outs stand apart in the source and are kept apart here.

How the values were obtained:
[1] = test system: HT29 (colorectal carcinoma); test: Cancer screening (MTT growth inhibition), HT29; type: cell-based; settings: 72 h; for Percentage (%) cell growth inhibition: 25 µM of drug
Description: (§1) All test agents were prepared as stock solutions (20 mM) in dimethyl sulfoxide (DMSO) and stored at −20 °C. Cell lines used in the study included: HT29 (colorectal carcinoma), U87 and SJ-G2 (glioblastoma), MCF-7 (breast carcinoma), A2780 (ovarian carcinoma), H460 (lung carcinoma), A431 (skin carcinoma), Du145 (prostate carcinoma), BE2-C (neuroblastoma), MiaPaCa-2 (pancreatic carcinoma), SMA560 (spontaneous murine astrocytoma), and ADDP (Cis Res Ovarian), together with one non-tumor-derived normal breast cell line (MCF10A). All cell lines were incubated in a humidified atmosphere with 5 % CO2 at 37 °C. The cancer cell lines were maintained in Dulbecco’s modified Eagle’s medium (DMEM; Sigma, Australia) supplemented with fetal bovine serum (10%), sodium pyruvate (10 mM), penicillin (100 IUmL^−1), streptomycin (100 µg mL^−1), and L-glutamine (2 mM).
(§2) Growth inhibition was determined by plating cells in duplicate in medium (100 µL) at a density of 2500–4000 cells per well in 96-well plates. On day 0 (24 h after plating), when the cells are in logarithmic growth, medium (100 µL) with or without the test agent was added to each well. After 72 h of drug exposure, growth inhibitory effects were evaluated using the (3-(4,5-dimethyltiazol-2-yl)-2,5-diphenyltetrazolium bromide) (MTT) assay and absorbance read at 540 nm. The percentage growth inhibition was calculated at a fixed concentration of 25 µM, based on the difference between the optical density values on day 0 and those at the end of drug exposure. Each data point is the mean ± the standard error of the mean (SEM) calculated from three replicates, which were performed on separate occasions and in separate cell line passages.

U87 (glioblastoma) = test: Cancer screening (MTT growth inhibition), U87; type: cell-based; settings: 72 h
Description: as §1, §2

[2] = test system: MiaPaCa-2 (pancreatic carcinoma); test: Cancer screening (MTT growth inhibition), MIA-Pa-Ca2; type: cell-based; settings: 72 h; for Percentage (%) cell growth inhibition: 25 µM of drug
Description: as §1, §2

[3] = target: T1, Aspergillus niger amyloglucosidase (Aspergillus niger, UniProt P69328); test: Glycosidase inhibition, A. niger amyloglucosidase; type: biochemical
T1 construct: purchased Sigma-Aldrich Co
T1 sequence (P69328 25-640): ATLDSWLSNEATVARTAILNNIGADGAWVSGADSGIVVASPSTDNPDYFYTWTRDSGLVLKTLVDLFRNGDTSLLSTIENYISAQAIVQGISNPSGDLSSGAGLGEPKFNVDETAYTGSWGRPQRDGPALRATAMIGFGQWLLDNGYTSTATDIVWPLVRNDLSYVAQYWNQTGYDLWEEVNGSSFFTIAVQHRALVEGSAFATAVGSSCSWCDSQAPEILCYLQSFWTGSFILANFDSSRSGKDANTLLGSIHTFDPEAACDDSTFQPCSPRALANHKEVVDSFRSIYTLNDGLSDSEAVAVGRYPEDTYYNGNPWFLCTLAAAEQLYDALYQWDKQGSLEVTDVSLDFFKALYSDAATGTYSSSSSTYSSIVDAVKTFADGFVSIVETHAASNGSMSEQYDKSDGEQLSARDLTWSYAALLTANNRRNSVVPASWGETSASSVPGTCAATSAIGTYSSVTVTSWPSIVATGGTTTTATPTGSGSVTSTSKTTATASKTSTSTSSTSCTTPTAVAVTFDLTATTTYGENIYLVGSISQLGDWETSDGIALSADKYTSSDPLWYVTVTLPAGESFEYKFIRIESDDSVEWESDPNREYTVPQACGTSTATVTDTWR
Description: (§3) Glycosidase modulation studies need to explore selectivity as well as potency. Our drugs and controls are therefore screened against a panel of glycosidases in methanol (Table 1) to identify the glycosidase-related disease area(s), selectivity profile, and potency of biological action for each drug. The presence of organic boron covalently bonded to the drug structure also grants a reduced toxicity profile. Following the glycosidase inhibition range recommendations, an IC50 value >250 μm denotes weak inhibition, 100–249 μm denotes moderate inhibition, 10–99 μm good inhibition, 0.1–9 μm potent inhibition, and <0.1 μm very potent inhibition. […] Our boronated D-galactose 7 represents a novel lead in glycosidase inhibition.
(§4) The glycosidases screened are the following: rice α-glucosidase, yeast α-glucosidase, Bacillus α-glucosidase, rat intestinal maltase α-glucosidase, almond β-glucosidase, bovine liver β-glucosidase, coffee beans α-galactosidase, bovine liver β-galactosidase, Jack bean α-mannosidase, snail β-mannosidase, Penicillium decumbens α-L-rhamnosidase, bovine kidney α-L-fucosidase, Eschierichia coli β-glucuronidase, bovine liver β-glucuronidase, porcine kidney trehalase, Aspergillus niger amyloglucosidase, and bovine kidney N-acetyl-β-glucosaminidase. The disease areas for each glycosidase are summarized in [1].
(§5) The enzymes α-glucosidase (from yeast), β-glucosidases (from almond and bovine liver), α-galactosidase (from coffee beans), β-galactosidase (from bovine liver), α-mannosidase (from Jack bean), β-mannosidase (from snail), α-L-rhamnosidase (from Penicillium decumbens), α-L-fucosidase (from bovine kidney), trehalase (from porcine kidney), β-glucuronidases (from E. coli and bovine liver), amyloglucosidase (from A. niger), para-nitrophenyl glycosides, and various disaccharides were purchased from Sigma-Aldrich Co.
(§6) Brush border membranes were prepared from the rat small intestine according to the method of Kessler et al. and were assayed at pH 6.8 for rat intestinal maltase using maltose. For rat intestinal maltase, porcine kidney trehalase, and A. niger amyloglucosidase activities, the reaction mixture contained 25 mM maltose and the appropriate amount of enzyme, and the incubations were performed for 10–30 min at 37 °C. The reaction was stopped by heating at 100 °C for 3 min. After centrifugation (600 g; 10 min), the resulting reaction mixture was added to the Glucose CII-test Wako (Wako Pure Chemical Ind., Osaka, Japan). The absorbance at 505 nm was measured to determine the amount of the released D-glucose. Other glycosidase activities were determined using an appropriate para-nitrophenyl glycoside as substrate at the optimum pH of each enzyme. The reaction mixture contained 2 mM of the substrate and the appropriate amount of enzyme. The reaction was stopped by the addition of 400 mM Na2CO3. The released para-nitrophenol was measured spectrometrically at 400 nm. All reactions run in methanol.

E. coli β-glucuronidase = target: T2, E. coli β-glucuronidase (Escherichia coli, UniProt P05804); test: Glycosidase inhibition, E. coli β-glucuronidase; type: biochemical
T2 construct: purchased Sigma-Aldrich Co
T2 sequence (P05804 whole entry): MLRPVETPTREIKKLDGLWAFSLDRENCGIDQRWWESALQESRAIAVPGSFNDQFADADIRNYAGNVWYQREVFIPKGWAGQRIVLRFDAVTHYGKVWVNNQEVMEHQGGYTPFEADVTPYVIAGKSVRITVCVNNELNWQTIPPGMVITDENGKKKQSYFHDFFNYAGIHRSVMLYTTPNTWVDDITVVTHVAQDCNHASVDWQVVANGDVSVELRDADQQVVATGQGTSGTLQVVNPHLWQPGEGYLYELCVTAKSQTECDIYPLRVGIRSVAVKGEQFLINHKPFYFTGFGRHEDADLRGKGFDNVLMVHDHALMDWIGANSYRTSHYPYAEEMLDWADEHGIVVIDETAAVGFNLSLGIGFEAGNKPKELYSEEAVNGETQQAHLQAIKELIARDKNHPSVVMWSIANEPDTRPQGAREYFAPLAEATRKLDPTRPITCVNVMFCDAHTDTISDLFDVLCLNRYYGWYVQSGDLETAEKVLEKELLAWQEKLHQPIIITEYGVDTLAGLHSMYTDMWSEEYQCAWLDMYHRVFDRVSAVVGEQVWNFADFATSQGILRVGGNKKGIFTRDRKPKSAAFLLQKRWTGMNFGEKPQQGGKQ
Description: as §3, §4, §5, §6

[4] = test system: bovine liver β-glucosidase; test: Glycosidase inhibition, bovine liver β-glucosidase; type: biochemical; settings: for inhibition %: in methanol
Description: as §3, §4, §5, §6

almond β-glucosidase = test: Glycosidase inhibition, almond β-glucosidase; type: biochemical; settings: for inhibition %: in methanol
Description: as §3, §4, §5, §6

SJ-G2 (glioblastoma) = test: Cancer screening (MTT growth inhibition), SJ-G2; type: cell-based; settings: 72 h; for Percentage (%) cell growth inhibition: 25 µM of drug
Description: as §1, §2

porcine kidney trehalase = target: T3, porcine kidney trehalase (Sus scrofa, UniProt I3LIR5); test: Glycosidase inhibition, porcine kidney trehalase; type: biochemical
T3 construct: purchased Sigma-Aldrich Co; host or cells: porcine kidney
T3 sequence (I3LIR5 24-583): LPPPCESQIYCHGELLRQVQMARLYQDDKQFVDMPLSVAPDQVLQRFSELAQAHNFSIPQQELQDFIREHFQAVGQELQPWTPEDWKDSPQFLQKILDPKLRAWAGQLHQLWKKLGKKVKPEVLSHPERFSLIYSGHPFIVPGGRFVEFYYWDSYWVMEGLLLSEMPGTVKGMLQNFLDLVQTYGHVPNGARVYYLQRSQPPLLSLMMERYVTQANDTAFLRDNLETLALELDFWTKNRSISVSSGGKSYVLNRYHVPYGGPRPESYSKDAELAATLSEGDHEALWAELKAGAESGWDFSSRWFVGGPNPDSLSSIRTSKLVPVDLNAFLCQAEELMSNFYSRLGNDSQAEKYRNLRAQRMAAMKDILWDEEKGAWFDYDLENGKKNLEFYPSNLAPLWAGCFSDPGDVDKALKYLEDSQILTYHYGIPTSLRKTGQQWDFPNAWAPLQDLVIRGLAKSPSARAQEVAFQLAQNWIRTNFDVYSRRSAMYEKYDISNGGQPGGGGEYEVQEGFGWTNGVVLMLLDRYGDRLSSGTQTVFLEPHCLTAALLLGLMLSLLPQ
Description: as §3, §4, §5, §6

snail β-mannosidase = test: Glycosidase inhibition, snail β-mannosidase; type: biochemical; settings: for inhibition %: in methanol
Description: as §3, §4, §5, §6

[5] = at 1000 μM, in methanol, read-out: inhibition %
[6] = at 1000 μM, read-out: NI: No inhibition
[7] = 25 µM of drug, n = 3, mean ± SEM

## OCC1OC(O)C(O)C(B(O)O)C1O [Compound 7, 3-Boronic-3-Deoxy-D-galactose]
[1]; Homo sapiens, HT-29, 25 µM of drug, n = 3, mean ± SEM, read-out: Percentage (%) cell growth inhibition
  inhibition at 25 µM: -2 ± 2%
[1]; Homo sapiens, HT-29, dose response, read-out: GI50 = Concentration that inhibits cell growth by 50%
  GI50: > 50 µM
U87 (glioblastoma); 25 µM of drug, n = 3, mean ± SEM, read-out: Percentage (%) cell growth inhibition
  inhibition at 25 µM: -6 ± 3%
U87 (glioblastoma); dose response, read-out: GI50 = Concentration that inhibits cell growth by 50%
  GI50: > 50 µM
[2]; Homo sapiens, MIA PaCa-2, 25 µM of drug, n = 3, mean ± SEM, read-out: Percentage (%) cell growth inhibition
  inhibition at 25 µM: 1 ± 2%
[2]; Homo sapiens, MIA PaCa-2, dose response, read-out: GI50 = Concentration that inhibits cell growth by 50%
  GI50: > 50 µM
[3]; [5]
  inhibition at 1000 µM: 1.5%
[3]; [6]
  inhibition at 1000 µM: < 50%
E. coli β-glucuronidase; [5]
  inhibition at 1000 µM: 3.7%
E. coli β-glucuronidase; [6]
  inhibition at 1000 µM: < 50%
[4]; at 1000 μM
  NI: No inhibition: NI (No inhibition (less than 50% inhibition at 1000 μM))
  inhibition %: 12.6%
Almond β-glucosidase; at 1000 μM
  NI: No inhibition: NI (No inhibition (less than 50% inhibition at 1000 μM))
  inhibition %: 1.3%
SJ-G2 (glioblastoma); SJ-G2, 25 µM of drug, n = 3, mean ± SEM, read-out: Percentage (%) cell growth inhibition
  inhibition at 25 µM: 7 ± 4%
SJ-G2 (glioblastoma); SJ-G2, dose response, read-out: GI50 = Concentration that inhibits cell growth by 50%
  GI50: > 50 µM
Porcine kidney trehalase; [5]
  inhibition at 1000 µM: 0.5%
Porcine kidney trehalase; [6]
  inhibition at 1000 µM: < 50%
Snail β-mannosidase; at 1000 μM
  NI: No inhibition: NI (No inhibition (less than 50% inhibition at 1000 μM))
  inhibition %: 0%

## N[C@@H](Cc1ccc(B(O)O)cc1)C(=O)O [^10B-BPA]
[1]; n = 3, mean ± SEM
  Percentage (%) cell growth inhibition: 15 ± 4%
U87 (glioblastoma); [7]
  Percentage (%) cell growth inhibition: <0%
[2]; n = 3, mean ± SEM
  Percentage (%) cell growth inhibition: 11 ± 3%
[3]; at 100 μM, in methanol
  inhibition %: 0%
E. coli β-glucuronidase; at 100 μM, in methanol
  inhibition %: 2.4%
[4]; at 100 μM
  NI: No inhibition: NI (No inhibition (less than 50% inhibition at 100 μM))
  inhibition %: 14.2%
Almond β-glucosidase; at 100 μM
  NI: No inhibition: NI (No inhibition (less than 50% inhibition at 100 μM))
  inhibition %: 0%
SJ-G2 (glioblastoma); n = 3, mean ± SEM
  Percentage (%) cell growth inhibition: 5 ± 10%
Porcine kidney trehalase; at 100 μM
  NI: No inhibition: NI (No inhibition (less than 50% inhibition at 100 μM))
Porcine kidney trehalase; at 100 μM, in methanol
  inhibition %: 0%
Snail β-mannosidase; at 100 μM
  NI: No inhibition: NI (No inhibition (less than 50% inhibition at 100 μM))
  inhibition %: 0.3%

## Borocaptate sodium [BSH]
[1]; n = 3, mean ± SEM
  Percentage (%) cell growth inhibition: 3 ± 2%
U87 (glioblastoma); [7]
  Percentage (%) cell growth inhibition: <0%
[2]; n = 3, mean ± SEM
  Percentage (%) cell growth inhibition: 2 ± 6%
[3]; at 1000 μM, in methanol
  inhibition %: 0%
E. coli β-glucuronidase; at 1000 μM, in methanol
  inhibition %: 6%
[4]; at 1000 μM
  NI: No inhibition: NI (No inhibition (less than 50% inhibition at 1000 μM))
  inhibition %: 15%
Almond β-glucosidase; at 1000 μM
  NI: No inhibition: NI (No inhibition (less than 50% inhibition at 1000 μM))
  inhibition %: 0%
SJ-G2 (glioblastoma); n = 3, mean ± SEM
  Percentage (%) cell growth inhibition: 3 ± 8%
Porcine kidney trehalase; at 1000 μM
  NI: No inhibition: NI (No inhibition (less than 50% inhibition at 1000 μM))
Porcine kidney trehalase; at 1000 μM, in methanol
  inhibition %: 4.2%
Snail β-mannosidase; at 1000 μM
  NI: No inhibition: NI (No inhibition (less than 50% inhibition at 1000 μM))
  inhibition %: 19.2%
